Measured values taken from US20080206761A1, “Ex Vivo Gene Expression in Whole Blood as a Model of Assessment of Individual Variation to Dietary Supplements” (priority 2005, published 2008).

Tests used:
Format in all cases: cell-based, human
IL-2 mRNA = test: PHA-induced IL-2 mRNA expression in heparinized whole blood ex vivo; conditions: for ΔΔCt (mean ± standard deviation, n = 3), IL-2 mRNA: supplement 30 min, concentrations per footnote; for effect on PHA-induced IL-2 expression, in words: summary over 7 subjects of Table I
Method: (§1) In this embodiment, phytohemagglutinin-induced gene expression of interleukin-2 (IL-2), interleukin-4 (IL-4), and tumor necrosis factor-α (TNF-α) were quantitated in the following manner. Fifty μL of heparinized whole blood was incubated with various dietary supplements for a period of 30 minutes. The following supplements were employed: vitamins A, C, and D, epigallocatechin gallate (from green tea), genistein (from soy), and curcumin (from the spice turmeric). Vitamin A is known to stimulate the immune system. […] Vitamin D appears to have protective effects against certain cancers. Epigallocatechin gallate is a powerful antioxidant, appears to reduce the multidrug resistance found in cancer cells, and preferentially induces apoptosis in neoplastic cells. Genistein has been found in some studies to have anticarcinogenic activity; possible mechanisms of action include upregulation of apoptosis, inhibition of angiogenesis, inhibition of DNA topoisomerase II and inhibition of protein tyrosine kinases. Curcumin has proapoptotic effects in neoplastic cells and interferes with the activity of the transcription factor NF-κB, which is often highly overexpressed in such cells.
(§2) After incubation with the dietary supplement, 100 μg/mL phytohemagglutinin (PHA) was added and incubation was continued for an additional 2 hours at 37° C. The concentration of each dietary supplement (see Table I, note) was slightly higher than reported blood levels. Then mRNA was purified, cDNA was synthesized, and the levels of IL-2, IL-4, and TNF-α were quantitated by TaqMan real time polymerase chain reaction (PCR) (see Holland, et al., “Detection of specific polymerase chain reaction product by utilizing the 5′ to 3′ exonuclease activity of Thermus aquaticus DNA polymerase,” Proc Natl Acad Sci USA 1991; 88: 7276-80), as described below.
(§3) The mRNA and cDNA were prepared from the whole blood that was exposed to the dietary components, as well as the whole blood which remained unexposed. In brief, home-made 96-well filterplates were placed over collection plates, and 150 μl 5 mM Tris, pH 7.4, was applied. Following centrifugation at 120×g for 1 min at 4° C., 50 μl of blood samples were applied to each well and immediately centrifuged at 120×g for 2 min at 4° C., followed by washing of each well with 300 μl PBS once with centrifugation at 2000×g for 5 min at 4° C. Then, 60 μl stock lysis buffer, containing for example 0.5% N-Lauroylsarcosine, 4×SSC, 10 mM Tris HCl, pH 7.4, 1 mM EDTA, 0.1% IGEPAL CA-630, and 1.791 M guanidine thiocyanate, supplemented with 1% 2-mercaptoethanol (Bio Rad, Hercules, Calif., USA), 0.5 mg/ml proteinase K (Pierce, Rockford, Ill., USA), 0.1 mg/ml salmon sperm DNA (5 Prime Eppendorf/Brinkmann, Westbury, N.Y., USA), 0.1 mg/ml E. coli tRNA (Sigma), a cocktail of 10 mM each of the specific reverse primers shown in Table 2, and standard RNA34 oligonucleotides, were applied to the filterplates, followed by incubation at 37° C. for 10 min. The filterplates were then placed over oligo(dT)-immobilized microplates (GenePlate, RNAture), and centrifuged at 2000×g for 5 min at 4° C. Following overnight storage at 4° C., the microplates were washed with 100 μl plain lysis buffer 3 times, followed by 150 μl of wash buffer (0.5 M NaCl, 10 mM Tris, pH 7.4, 1 mM EDTA) 3 times at 4° C. The cDNA was directly synthesized in each well by adding 30 μl of buffer containing 1×RT-buffer, 1.25 mM each of dNTP, 4 units rRNasin, and 80 units of MMLV reverse transcriptase (Promega) (without primers), and incubation at 37° C. for 2 hours. The specific primer-primed cDNA existed in solution, and oligo(dT)-primed cDNA stayed immobilized in the microplate. […]

IL-4 mRNA = test: PHA-induced IL-4 mRNA expression in heparinized whole blood ex vivo; conditions: for ΔΔCt (mean ± standard deviation, n = 3), IL-4 mRNA: supplement 30 min, then 100 μg/mL PHA 2 h, concentrations per footnote; for effect on PHA-induced IL-4 expression, in words: summary over 7 subjects of Table I
Method: as §1, §2, §3

TNF-α mRNA = test: PHA-induced TNF-α mRNA expression in heparinized whole blood ex vivo; conditions: for ΔΔCt (mean ± standard deviation, n = 3), TNFα mRNA: supplement 30 min, then 100 μg/mL PHA 2 h, concentrations per footnote; for effect on PHA-induced TNF-α expression, in words: summary over 7 subjects of Table I
Method: as §1, §2, §3

[1] = system: CD32A mRNA (IgG Fc receptor); test: CD32A mRNA level in leukocytes after exposure of whole blood to dietary components (no stimulating agent); conditions: one individual; 3 hours at 37° C.; PBS control
Method: In brief, home-made 96-well filterplates were placed over collection plates, and 150 μl 5 mM Tris, pH 7.4, was applied. Following centrifugation at 120×g for 1 min at 4° C., 50 μl of blood samples were applied to each well and immediately centrifuged at 120×g for 2 min at 4° C., followed by washing of each well with 300 μl PBS once with centrifugation at 2000×g for 5 min at 4° C. […] The filterplates were then placed over oligo(dT)-immobilized microplates (GenePlate, RNAture), and centrifuged at 2000×g for 5 min at 4° C. Following overnight storage at 4° C., the microplates were washed with 100 μl plain lysis buffer 3 times, followed by 150 μl of wash buffer (0.5 M NaCl, 10 mM Tris, pH 7.4, 1 mM EDTA) 3 times at 4° C. […] The specific primer-primed cDNA existed in solution, and oligo(dT)-primed cDNA stayed immobilized in the microplate. […] Each gene was amplified in separate wells. The Ct was determined by analytical software (SDS, ABI).

[2] = Subject 1, then 100 μg/mL PHA 2 h 37° C., negative = increased expression
[3] = Subject 2, then 100 μg/mL PHA 2 h
[4] = Subject 3, then 100 μg/mL PHA 2 h
[5] = Subject 4, then 100 μg/mL PHA 2 h
[6] = Subject 5, then 100 μg/mL PHA 2 h
[7] = Subject 6, then 100 μg/mL PHA 2 h
[8] = Subject 7, then 100 μg/mL PHA 2 h

| Compound | ΔΔCt (mean ± standard deviation, n = 3), IL-2 mRNA (IL-2 mRNA; [2]) | ΔΔCt (mean ± standard deviation, n = 3), IL-2 mRNA (IL-2 mRNA; [3]) | ΔΔCt (mean ± standard deviation, n = 3), IL-2 mRNA (IL-2 mRNA; [4]) | ΔΔCt (mean ± standard deviation, n = 3), IL-2 mRNA (IL-2 mRNA; [5]) | ΔΔCt (mean ± standard deviation, n = 3), IL-2 mRNA (IL-2 mRNA; [6]) | ΔΔCt (mean ± standard deviation, n = 3), IL-2 mRNA (IL-2 mRNA; [7]) | ΔΔCt (mean ± standard deviation, n = 3), IL-2 mRNA (IL-2 mRNA; [8]) | ΔΔCt (mean ± standard deviation, n = 3), IL-4 mRNA (IL-4 mRNA; Subject 1) | ΔΔCt (mean ± standard deviation, n = 3), IL-4 mRNA (IL-4 mRNA; Subject 2) | ΔΔCt (mean ± standard deviation, n = 3), IL-4 mRNA (IL-4 mRNA; Subject 3) | ΔΔCt (mean ± standard deviation, n = 3), IL-4 mRNA (IL-4 mRNA; Subject 4) | ΔΔCt (mean ± standard deviation, n = 3), IL-4 mRNA (IL-4 mRNA; Subject 5) | ΔΔCt (mean ± standard deviation, n = 3), IL-4 mRNA (IL-4 mRNA; Subject 6) | ΔΔCt (mean ± standard deviation, n = 3), IL-4 mRNA (IL-4 mRNA; Subject 7) | effect on PHA-induced IL-4 expression, in words (IL-4 mRNA) | ΔΔCt (mean ± standard deviation, n = 3), TNFα mRNA (TNF-α mRNA; Subject 1) | ΔΔCt (mean ± standard deviation, n = 3), TNFα mRNA (TNF-α mRNA; Subject 2) | ΔΔCt (mean ± standard deviation, n = 3), TNFα mRNA (TNF-α mRNA; Subject 3) | ΔΔCt (mean ± standard deviation, n = 3), TNFα mRNA (TNF-α mRNA; Subject 4) | ΔΔCt (mean ± standard deviation, n = 3), TNFα mRNA (TNF-α mRNA; Subject 5) | other results |
| --- | --- | --- | --- | --- | --- | --- | --- | --- | --- | --- | --- | --- | --- | --- | --- | --- | --- | --- | --- | --- | --- |
| vitamin D [VD] | −0.13 ± 0.07 | 0.06 ± 0.40 | 0.00 ± 0.15 | −0.31 ± 0.30 | −0.45 ± 0.61 | −0.55 ± 0.14 | −0.86 ± 0.12 | −0.17 ± 1.0 | 0.06 ± 0.15 | −0.77 ± 0.40 | −0.43 ± 0.17 | −1.22 ± 0.17 | −0.77 ± 0.09 | −1.30 ± 0.22 | enhanced IL-4 expression, with 1-3 exceptions | −0.25 ± 1.47 | 0.14 ± 0.40 | −0.04 ± 0.27 | 0.09 ± 0.16 | −1.21 ± 0.14 | ΔΔCt (mean ± standard deviation, n = 3), TNFα mRNA (TNF-α mRNA; Subject 6): −0.48 ± 0.04; ΔΔCt (mean ± standard deviation, n = 3), TNFα mRNA (TNF-α mRNA; Subject 7): −0.40 ± 0.15; conclusion from CD32A mRNA levels (FIG. 2), in words [1]: would be suitable for use in this individual in a diet optimized for anti-cancer activity |
| O=C(O[C@@H]1Cc2c(O)cc(O)cc2O[C@@H]1c1cc(O)c(O)c(O)c1)c1cc(O)c(O)c(O)c1 [EGCG, epigallocatechin gallate] | −0.1 ± 0.02 | −0.67 ± 0.48 | 1.32 ± 0.54 | 0.81 ± 0.11 | −0.99 ± 0.33 | 1.1 ± 0.14 | −0.41 ± 0.29 | −1.83 ± 0.20 | −1.56 ± 0.46 | −0.82 ± 0.34 | 0.92 ± 0.25 | −1.37 ± 0.3 | −0.9 ± 0.01 | −1.47 ± 0.41 | enhanced PHA-induced IL-4 expression in all 7 cases | −1.14 ± 0.32 | −0.63 ± 0.66 | 0.33 ± 0.62 | −0.16 ± 0.12 | −1.22 ± 0.29 | effect on PHA-induced IL-2 expression, in words (IL-2 mRNA): 3 out of 7 persons showed decreases, 1 showed an increase, and 3 were unchanged; ΔΔCt (mean ± standard deviation, n = 3), TNFα mRNA (TNF-α mRNA; Subject 6): −0.66 ± 0.14; ΔΔCt (mean ± standard deviation, n = 3), TNFα mRNA (TNF-α mRNA; Subject 7): −0.94 ± 0.46; effect on PHA-induced TNF-α expression, in words (TNF-α mRNA): showed individual variations; conclusion from CD32A mRNA levels (FIG. 2), in words [1]: would be suitable for use in this individual in a diet optimized for anti-cancer activity |
| O=C1O[C@H]([C@@H](O)CO)C(O)=C1O [VC, vitamin C] | −0.18 ± 0.54 | 0.00 ± 0.60 | 1.04 ± 0.21 | 1.47 ± 0.19 | −0.80 ± 0.13 | 1.02 ± 0.05 | 0.07 ± 0.27 | −2.20 ± 0.72 | −0.86 ± 0.62 | −0.77 ± 0.40 | −0.43 ± 0.17 | −1.22 ± 0.17 | −0.77 ± 0.09 | −1.30 ± 0.22 | enhanced IL-4 expression, with 1-3 exceptions | −1.82 ± 0.65 | 0.10 ± 1.14 | −0.04 ± 0.27 | 0.09 ± 0.16 | −1.21 ± 0.14 | ΔΔCt (mean ± standard deviation, n = 3), TNFα mRNA (TNF-α mRNA; Subject 6): −0.48 ± 0.04; ΔΔCt (mean ± standard deviation, n = 3), TNFα mRNA (TNF-α mRNA; Subject 7): −0.40 ± 0.15 |
| CCCCC/C=C\C/C=C\C/C=C\CCCCC(=O)O [γ-linoleic acid, γ-linoleic acids] | – | – | – | – | – | – | – | – | – | – | – | – | – | – | – | – | – | – | – | – | conclusion from CD32A mRNA levels (FIG. 2), in words [1]: would be suitable for use in this individual in a diet optimized for anti-cancer activity |
| vitamin E | – | – | – | – | – | – | – | – | – | – | – | – | – | – | – | – | – | – | – | – | conclusion from CD32A mRNA levels (FIG. 2), in words [1]: would be suitable for use in this individual in a diet optimized for anti-cancer activity |
| COc1cc(/C=C/C(=O)CC(=O)/C=C/c2ccc(O)c(OC)c2)ccc1O [Cur., curcumin] | 1.47 ± 0.59 | 2.51 ± 0.23 | 0.31 ± 0.14 | 0.33 ± 0.27 | 0.03 ± 0.20 | 0.01 ± 0.14 | −0.01 ± 0.21 | 1.27 ± 0.78 | 3.09 ± 0.15 | −0.01 ± 0.07 | 0.10 ± 0.27 | 0.00 ± 0.20 | 0.10 ± 0.13 | 0.52 ± 0.26 | significantly decreased IL-2, IL-4, and TNF-α expression in 2 cases | 3.52 ± 1.84 | 3.64 ± 2.26 | 0.83 ± 0.60 | 0.45 ± 0.15 | 0.13 ± 0.17 | effect on PHA-induced IL-2 expression, in words (IL-2 mRNA): significantly decreased IL-2, IL-4, and TNF-α expression in 2 cases; ΔΔCt (mean ± standard deviation, n = 3), TNFα mRNA (TNF-α mRNA; Subject 6): 0.07 ± 0.01; ΔΔCt (mean ± standard deviation, n = 3), TNFα mRNA (TNF-α mRNA; Subject 7): 0.12 ± 0.21; effect on PHA-induced TNF-α expression, in words (TNF-α mRNA): significantly decreased IL-2, IL-4, and TNF-α expression in 2 cases |
